For this assay, the target named is T1, cell-surface expressed nucleolin (Homo sapiens, UniProt P19338).
T1 construct: endogenous in cells; host or cells: HeLa P4 cells
In words: cell-based.

Side chains are listed from the residue outwards. Peptide text beside a SMILES is read from it. * marks the point of attachment. X1 = NCCCC[C@H](N)CN1CCC[C@H]1C(=O)*

T1 sequence (P19338 whole entry): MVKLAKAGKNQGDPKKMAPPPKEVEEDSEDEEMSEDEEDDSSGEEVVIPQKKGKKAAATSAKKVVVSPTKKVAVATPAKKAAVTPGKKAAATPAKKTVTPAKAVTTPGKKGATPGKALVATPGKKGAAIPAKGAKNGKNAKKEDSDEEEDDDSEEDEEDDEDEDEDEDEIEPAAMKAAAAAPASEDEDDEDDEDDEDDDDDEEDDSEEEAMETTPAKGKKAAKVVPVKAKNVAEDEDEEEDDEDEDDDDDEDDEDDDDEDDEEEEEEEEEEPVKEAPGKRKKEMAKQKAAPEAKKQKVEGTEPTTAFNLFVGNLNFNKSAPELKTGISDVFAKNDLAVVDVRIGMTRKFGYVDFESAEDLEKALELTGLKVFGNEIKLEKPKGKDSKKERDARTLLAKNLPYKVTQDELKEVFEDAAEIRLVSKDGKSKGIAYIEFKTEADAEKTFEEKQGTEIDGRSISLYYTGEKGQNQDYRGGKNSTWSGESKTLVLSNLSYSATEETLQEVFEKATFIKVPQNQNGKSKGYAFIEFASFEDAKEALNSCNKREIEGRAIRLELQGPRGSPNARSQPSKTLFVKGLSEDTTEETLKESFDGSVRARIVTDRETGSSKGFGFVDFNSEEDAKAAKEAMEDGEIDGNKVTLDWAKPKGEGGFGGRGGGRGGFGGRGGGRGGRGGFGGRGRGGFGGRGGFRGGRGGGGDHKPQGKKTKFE

Turning to `CC(=O)N[C@@H](CCCCNC(=O)[C@H](CCCNC(=N)N)NC(=O)[C@@H]1CCCN1C[C@@H](N)CCCCN)C(=O)N[C@@H](C)C(=O)N[C@@H](CCCCNC(=O)[C@H](CCCNC(=N)N)NC(=O)[C@@H]1CCCN1C[C@@H](N)CCCCN)C(=O)N1CCC[C@H]1C(=O)NCC(=O)N[C@@H](CCCCNC(=O)[C@H](CCCNC(=N)N)NC(=O)[C@@H]1CCCN1C[C@@H](N)CCCCN)C(=O)N[C@@H](C)C(=O)N[C@@H](CCCCNC(=O)[C@H](CCCNC(=N)N)NC(=O)[C@@H]1CCCN1C[C@@H](N)CCCCN)C(=O)N1CCC[C@H]1C(=O)NCC(=O)N[C@@H](CCCCNC(=O)[C@H](CCCNC(=N)N)NC(=O)[C@@H]1CCCN1C[C@@H](N)CCCCN)C(=O)N[C@@H](C)C(=O)N[C@@H](CCCCNC(=O)[C@H](CCCNC(=N)N)NC(=O)[C@@H]1CCCN1C[C@@H](N)CCCCN)C(=O)N1CCC[C@H]1C(=O)NCC(N)=O` [Nucant 7] (Ac-K([Arg-X1])AK([Arg-X1])PGK([Arg-X1])AK([Arg-X1])PGK([Arg-X1])AK([Arg-X1])PG-NH2), the half-maximal inhibitory concentration (IC50) is under 0.1 µM. Besides, the inhibition at 0.8 µM (HeLaP4, read-out: inhibitory activity) is over 95%.

(Values after patent publication EP2033655B1 (priority 2007, dated 2009).)
